Source: patent publication US20240158446A1, “CYCLIC COMPOUND HAVING SELECTIVE INHIBITORY ACTION ON KRAS OVER HRAS AND NRAS” (CHUGAI SEIYAKU KABUSHIKI KAISHA, priority 2021, published 2024)

Tests used:
[1] = molecular target: GDP-bound HRAS wild-type protein (Homo sapiens, UniProt P01112); assay: Binding to HRAS by surface plasmon resonance (SPR), Single Cycle Kinetics; settings: SPR, GDP-bound HRAS wild-type protein vs GDP-bound KRAS wild-type protein
[2] = molecular target: GDP-bound NRAS wild-type protein (Homo sapiens, UniProt P01111); assay: Binding to NRAS by surface plasmon resonance (SPR), Single Cycle Kinetics; settings: SPR, GDP-bound NRAS wild-type protein vs GDP-bound KRAS wild-type protein
[3] = molecular target: GDP-bound KRAS wild-type protein (Homo sapiens, UniProt P01116); assay: Binding to KRAS by surface plasmon resonance (SPR), Single Cycle Kinetics; settings: SPR, Single Cycle Kinetics, GDP-bound KRAS wild-type protein; read-out: KRAS KD
Chain of GDP-bound KRAS wild-type protein (P01116 whole entry): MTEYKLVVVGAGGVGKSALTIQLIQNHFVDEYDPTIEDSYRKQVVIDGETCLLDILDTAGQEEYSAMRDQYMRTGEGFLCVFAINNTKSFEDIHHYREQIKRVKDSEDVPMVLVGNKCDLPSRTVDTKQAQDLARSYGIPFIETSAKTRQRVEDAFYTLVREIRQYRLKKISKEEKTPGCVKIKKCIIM

Chain of GDP-bound HRAS wild-type protein (P01112 whole entry): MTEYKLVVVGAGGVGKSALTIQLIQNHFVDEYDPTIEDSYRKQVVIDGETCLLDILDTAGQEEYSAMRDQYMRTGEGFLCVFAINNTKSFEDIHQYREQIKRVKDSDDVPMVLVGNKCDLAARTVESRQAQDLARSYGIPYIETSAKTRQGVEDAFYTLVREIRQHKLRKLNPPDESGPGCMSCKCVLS
Chain of GDP-bound NRAS wild-type protein (P01111 whole entry): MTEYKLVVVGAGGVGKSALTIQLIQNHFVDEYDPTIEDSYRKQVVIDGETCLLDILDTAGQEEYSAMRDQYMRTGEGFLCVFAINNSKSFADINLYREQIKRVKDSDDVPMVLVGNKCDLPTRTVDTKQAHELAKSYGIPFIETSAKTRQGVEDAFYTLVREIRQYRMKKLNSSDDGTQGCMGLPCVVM

Structure (SMILES) | Kd [3] | HRAS/KRAS (ratio of KD value for HRAS to KD value for KRAS) [1] | NRAS/KRAS (ratio of KD value for NRAS to KD value for KRAS) [2]
CCCN1CC(=O)N(C)[C@H]2C/C=C\CCN(C2=O)[C@@H](Cc2ccc(C)cc2)C(=O)N(C)CC(=O)N[C@@H](CCc2ccc(C(F)(F)F)c(OC)c2)C(=O)N2C[C@H](OCC)C[C@H]2C(=O)NC2(CC(C)(C)C2)C(=O)N(C)[C@@H](C2CCCC2)C(=O)N(C)[C@H](C(=O)N(C)C)CC(=O)N(C)[C@@H](CC)C(=O)N[C@@H]([C@@H](C)CC)C1=O [PP2096] | 0.42 nM | A (a compound having 10 or more and less than 20 is denoted as A) | A (a compound having 10 or more and less than 20 is denoted as A)
C=CCN1CC(=O)N(C)[C@H]2C/C=C\CCN(C2=O)[C@@H](Cc2ccc(C)cc2)C(=O)N(C)CC(=O)N[C@@H](CCc2ccc(C(F)(F)F)c(OC)c2)C(=O)N2C[C@H](OCC)C[C@H]2C(=O)NC2(CC(C)(C)C2)C(=O)N(C)[C@@H](C2CCCC2)C(=O)N(C)[C@H](C(=O)N(C)C)CC(=O)N(C)[C@@H](CCC)C(=O)N[C@@H]([C@@H](C)CC)C1=O [PP2098] | 0.2 nM | A (a compound having 10 or more and less than 20 is denoted as A) | A (a compound having 10 or more and less than 20 is denoted as A)
CCC[C@H]1C(=O)N[C@@H]([C@@H](C)CC)C(=O)N(C2CC2)CC(=O)N(C)[C@H]2C/C=C\CCN(C2=O)[C@@H](Cc2ccc(C(F)(F)F)cc2)C(=O)N(C)CC(=O)N[C@@H](CCc2cc(F)c(C(F)(F)F)c(F)c2)C(=O)N2C[C@H](OCC)C[C@H]2C(=O)NC2(CC(C)(C)C2)C(=O)N(C)[C@@H](C2CCCC2)C(=O)N(C)[C@H](C(=O)N(C)C)CC(=O)N1C [PP2101] | 0.32 nM | B (a compound having 3 or more and less than 10 is denoted as B) | A (a compound having 10 or more and less than 20 is denoted as A)
C#CCN1CC(=O)N(C)[C@H]2C/C=C\CCN(C2=O)[C@@H](Cc2ccc(C(F)(F)F)cc2)C(=O)N(C)CC(=O)N[C@@H](CCc2cc(F)c(C(F)(F)F)c(F)c2)C(=O)N2C[C@H](OCC)C[C@H]2C(=O)NC2(CC(C)(C)C2)C(=O)N(C)[C@@H](C2CCCC2)C(=O)N(C)[C@H](C(=O)N(C)C)CC(=O)N(C)[C@@H](CCC)C(=O)N[C@@H]([C@@H](C)CC)C1=O [PP2103] | 0.25 nM | A (a compound having 10 or more and less than 20 is denoted as A) | A (a compound having 10 or more and less than 20 is denoted as A)
C=CCN1CC(=O)N(C)[C@H]2C/C=C\CCN(C2=O)[C@@H](Cc2ccc(C(F)(F)F)cc2)C(=O)N(C)CC(=O)N[C@@H](CCc2ccc(C(F)(F)F)c(OC)c2)C(=O)N2C[C@H](OCC)C[C@H]2C(=O)NC2(CC(C)(C)C2)C(=O)N(C)[C@@H](C2CCCC2)C(=O)N(C)[C@H](C(=O)N(C)C)CC(=O)N(C)[C@@H](CCC)C(=O)N[C@@H]([C@@H](C)CC)C1=O [PP2106] | 0.2 nM | A (a compound having 10 or more and less than 20 is denoted as A) | A (a compound having 10 or more and less than 20 is denoted as A)
CCO[C@@H]1C[C@H]2C(=O)NC3(CC(C)(C)C3)C(=O)N(C)[C@@H](C(CC)CC)C(=O)N(C)[C@H](C(=O)N(C)C)CC(=O)N(C)[C@@H](CC3CC3)C(=O)N[C@@H]([C@@H](C)CC)C(=O)N(C)CC(=O)N(C)[C@H]3C/C=C\CCN(C3=O)[C@@H](Cc3ccc(C(F)(F)F)cc3)C(=O)N(C)CC(=O)N[C@@H](CCc3cc(F)c(C(F)(F)F)c(F)c3)C(=O)N2C1 [PP2119] | 5 nM | B (a compound having 3 or more and less than 10 is denoted as B) | A (a compound having 10 or more and less than 20 is denoted as A)

Stronger by Kd [3], values ahead:

Kd [3] | Structure (SMILES) | HRAS/KRAS (ratio of KD value for HRAS to KD value for KRAS) [1] | NRAS/KRAS (ratio of KD value for NRAS to KD value for KRAS) [2]
0.15 nM | C#CCN1CC(=O)N(C)[C@H]2C/C=C\CCN(C2=O)[C@@H](Cc2ccc(C)cc2)C(=O)N(C)CC(=O)N[C@@H](CCc2cc(F)c(C(F)(F)F)c(F)c2)C(=O)N2C[C@H](OCC)C[C@H]2C(=O)NC2(CC(C)(C)C2)C(=O)N(C)[C@@H](C2CCCC2)C(=O)N(C)[C@H](C(=O)N(C)C)CC(=O)N(C)[C@@H](CCC)C(=O)N[C@@H]([C@@H](C)CC)C1=O [PP2095] | A (a compound having 10 or more and less than 20 is denoted as A) | A (a compound having 10 or more and less than 20 is denoted as A)
0.16 nM | C=CCN1CC(=O)N(C)[C@H]2C/C=C\CCN(C2=O)[C@@H](Cc2ccc(C(F)(F)F)cc2)C(=O)N(C)CC(=O)N[C@@H](CCc2cc(F)c(C(F)(F)F)c(F)c2)C(=O)N2C[C@H](OCC)C[C@H]2C(=O)NC2(CC(C)(C)C2)C(=O)N(C)[C@@H](C2CCCC2)C(=O)N(C)[C@H](C(=O)N(C)C)CC(=O)N(C)[C@@H](CCC)C(=O)N[C@@H]([C@@H](C)CC)C1=O [PP2102] | A (a compound having 10 or more and less than 20 is denoted as A) | A (a compound having 10 or more and less than 20 is denoted as A)
0.18 nM | CCC[C@H]1C(=O)N[C@@H]([C@@H](C)CC)C(=O)N(C2CC2)CC(=O)N(C)[C@H]2C/C=C\CCN(C2=O)[C@@H](Cc2ccc(C(F)(F)F)cc2)C(=O)N(C)CC(=O)N[C@@H](CCc2ccc(C(F)(F)F)c(OC)c2)C(=O)N2C[C@H](OCC)C[C@H]2C(=O)NC2(CC(C)(C)C2)C(=O)N(C)[C@@H](C2CCCC2)C(=O)N(C)[C@H](C(=O)N(C)C)CC(=O)N1C [PP2105] | A (a compound having 10 or more and less than 20 is denoted as A) | A (a compound having 10 or more and less than 20 is denoted as A)
0.15 nM | C#CCN1CC(=O)N(C)[C@H]2C/C=C\CCN(C2=O)[C@@H](Cc2ccc(C(F)(F)F)cc2)C(=O)N(C)CC(=O)N[C@@H](CCc2ccc(C(F)(F)F)c(OC)c2)C(=O)N2C[C@H](OCC)C[C@H]2C(=O)NC2(CC(C)(C)C2)C(=O)N(C)[C@@H](C2CCCC2)C(=O)N(C)[C@H](C(=O)N(C)C)CC(=O)N(C)[C@@H](CCC)C(=O)N[C@@H]([C@@H](C)CC)C1=O [PP2107] | A (a compound having 10 or more and less than 20 is denoted as A) | A (a compound having 10 or more and less than 20 is denoted as A)
0.15 nM | CCO[C@@H]1C[C@H]2C(=O)NC3(CCC3)C(=O)N(C)[C@@H](C3CCCC3)C(=O)N(C)[C@H](C(=O)N(C)CC)CC(=O)N(C)[C@H]3CCCCCc4ccc(cc4)C[C@@H](C(=O)N(C)CC(=O)N[C@@H](CCc4ccc(C(F)(F)F)c(OC)c4)C(=O)N2C1)N1CC/C=C\C[C@@H](C1=O)N(C)C(=O)CN(C)C(=O)[C@H]([C@@H](C)CC)NC3=O [PP2118] | B (a compound having 3 or more and less than 10 is denoted as B) | A (a compound having 10 or more and less than 20 is denoted as A)
